Reference: patent EP0688331B1, “NEW SULFATED LYSO-GANGLIOSIDE DERIVATIVES” (FIDIA S.p.A., priority 1993, dated 1994)
Like-named read-outs stand apart in the source and are kept apart here.

Key:
[1] = molecular target: T1, CD4 (Homo sapiens, UniProt P01730); assay: Expression of the CD4 molecule in Molt 3 cells (flow cytofluorimetry with anti-CD4 mAb); type: cell-based; details: 60 minutes at 37° C
T1 construct: 100% of Molt 3 cells express CD4; host or cells: Molt 3 cells (human acute lymphoblastic leukemia T-cell line)
From the text: Molt 3 cells (American Type Culture Collection - Rockville, MD, USA) have been utilized, human tumoral cell lines derived from an acute lymphoblastic leukemia and formed by T lymphocytes expressing CD4 on their surface. Such a cell line was chosen due to the fact that it overlaps, as regards the expression of the CD4 molecule, human T lymphocytes obtained from peripheral blood. 100% of Molt 3 cells express CD4, whereas only part of human T lymphocytes from peripheral blood express CD4 in a proportion varying from subject to subject. The Molt 3 model has therefore the advantage of allowing a better experimental reliability.
Molt 3 cells (1x10^6) have been incubated with different concentrations of Liga 179 (from 1 µg/ml to 500 µg/ml) for 60 minutes at 37° C in buffered saline (PBS), with or without Fetal Calf Serum (FCS). When utilized, FCS was added at a concentration of 5 or 10 part/percentage (vol/vol). Following the incubation and the subsequent washing the percentage of cells expressing CD4 has been measured by flow cytofluorimetry using a monoclonal, fluoresceinated (mAb), specific for CD4 (DAKO T4, Dakopatts, Glostrup, Denmark) and a cytofluorimeter (EPICS V, Coulter Electronics, Hialeah, Florida, USA). In Table 4 are reported the data concerning the percentage of Molt 3 cells that express CD4, following the incubation with the compound under examination at the different concentrations utilized.

[2] = tested on: cerebellar granule cells; details: read-out: ED50 (antineurotoxic activity); co-treatment with 100 µM glutamate, 30 minutes; MTT after 24 hours
Procedure: Thus, dilutions have been performed at different concentrations in Locke's solution (154 mM NaCl, 5.6 mM KCl, 3.6 mM NaHCO3, 2.3 mM CaCl2, 5.6 mM glucose, 4.6 mM Hepes, pH 7.4). Concentrations from 100 µM to 5 µM have been tested.
The cell culture medium was aspirated from the dishes (and properly stored). The dishes were washed (3x2 ml) with Locke's solution in the absence of Mg^2+. Then, 1.5 ml of Locke's solution (-Mg^2+) with or without 100 µM glutamate and with or without the compound to be tested were added. The incubation period lasted 30 minutes (37° C). Glutamate and the compound to be tested were then removed. The dishes were washed with Locke's solution in the presence of Mg^2+ (2x2 ml) and then incubated in the presence of the initial medium (properly stored) for 24 hours at 37° C in an incubator (5% CO2).
At the end of the incubation cell viability measured by means of the MTT colorimetric test was evaluated (Mosmann T.: Rapid colorimetric assay for cellular growth and survival: application to proliferation and cytotoxicity assays. J Immunol. Meth. 65, 55-63, 1983 and modified according to Skaper S.D. et al.: Death of cultured hippocampal pyramidal neurons induced by pathological activation of N-methyl-D-aspartate receptors is reduced by monosialogangliosides. J. Pharm. and Exp. Ther. 259,1, 452-457, 1991). Data were expressed as ED50 (µM).

[3] = tested on: Mouse neuroblastoma cells C1300, Neuro-2A clone; assay: Neuritogenic activity (% of neurite-bearing cells under the optical microscope); type: cell-based; details: for EC50: neuroblastoma cells N2A, % of neurite-bearing cells, read-out: ED50 (µM) neuritogenic effect
Procedure: Mouse neuroblastoma cells C1300, Neuro-2A clone (obtained from American Cell Type Culture Collection - Bethesda, Md) have been seeded at a density of 10,000 cells/well (24-Falcon) in tissue culture medium containing Dulbecco's modified Eagle medium (DMEM, Gibco), 10% fetal calf serum heat inactivated (FCS, lot 7201 Seromed), penicillin (100 units per ml, Irvine) and L-glutamine (2 mM, Sigma). Cells have been incubated at 37° C for 24 hr, then the medium was withdrawn and substituted with 350 µl of fresh culture medium with and without the compounds to be tested.
The derivatives have been solubilized in chloroform/methanol (2/1) and then dried under a flow of nitrogen.
For the different compounds, consecutive dilutions in tissue culture medium (concentrations from 50 µM to 5 µM) were performed.
Culture dishes incubated with the tested compounds were analyzed under a phase contrast microscope (250x) : 9 optical fields were chosen with prefixed coordinates and photographed. Then, the total number of cells were counted, as well as the number of neurite-bearing cells (length at least double of the cell diameter) in blind on every picture. The percentage of neurite-bearing cells was determined following the counting of at least 100 cells, and the data were expressed by the respective ED50 (µM) (Facci L. et al.: Promotion of neuritogenesis in mouse neuroblastoma cells by exogenous ganglioside GM1. J. Neurochem. 229-305, 1984).

[4] = tested on: cerebellar granule cells; details: read-out: ED50 (antineurotoxic activity); 2 hrs pretreatment, then 100 µM glutamate 60 minutes; MTT after 24 hr
Procedure: Primary cultures of cerebellar granule cells have been prepared from 8-day-old Sprague-Dawley rats.
Neurons have been grown in 35 mm dishes for 11-13 days and kept in a humidified environment (95% air and 5% CO2) at 37° C. […] Glial proliferation was prevented by cytosine arabinofuranoside.
Concentrations from 100 µM to 5 µM have been tested.
The cell culture medium was aspirated from the dishes (and properly stored). The dishes were washed (3x2 ml) with Locke's solution, then the solutions (1.5 ml) containing the compound to be tested were added, and incubated for 2 hrs in incubator at 37° C (5% CO2).
The treated cells were washed (3x2 ml) with Locke's solution + 10% fetal calf serum heat inactivated (without glutamic acid), then washed (3x2 ml) in Locke's solution in the absence of Mg^2+. […]
At the end of the incubation the cell viability measured by using the MTT colorimetric test was evaluated (Mosmann T., Rapid colorimetric assay for cellular growth and survival: application to proliferation and cytotoxicity assays. J. Immunol. Meth. 65, 55-63, 1983 and modified according to Skaper S.D. et al.: Death of cultured hippocampal pyramidal neurons induced by pathological activation of N-methyl-Daspartate receptors is reduced by monosialogangliosides. J. Pharm. and Exp. Ther. 259, 1, 452-457, 1991). The data are expressed as ED50 (µM).

% MOLT-3 cells expressing CD4 on the surface ([1]; 10 µg/ml, FCS 0 %, without compound 96.9) [%] | % MOLT-3 cells expressing CD4 on the surface ([1]; 50 µg/ml, FCS 0 %, without compound 96.9) [%] | % MOLT-3 cells expressing CD4 on the surface ([1]; 100 µg/ml, FCS 0 %, without compound 96.9) [%] | % MOLT-3 cells expressing CD4 on the surface ([1]; 100 µg/ml, FCS 5 %, without compound 98.6) [%] | % MOLT-3 cells expressing CD4 on the surface ([1]; 100 µg/ml, FCS 10 %, without compound 96.9) [%] | % MOLT-3 cells expressing CD4 on the surface ([1]; 200 µg/ml, FCS 5 %, without compound 98.6) [%] | % MOLT-3 cells expressing CD4 on the surface ([1]; 200 µg/ml, FCS 10 %, without compound 96.9) [%] | % MOLT-3 cells expressing CD4 on the surface ([1]; 500 µg/ml, FCS 5 %, without compound 98.6) [%] | % MOLT-3 cells expressing CD4 on the surface ([1]; 500 µg/ml, FCS 10 %, without compound 96.9) [%] | EC50 [3] [µM] | Substance | EC50 [2] [µM] | % of neurite-bearing cells ([3]; dose of 25 µM) | EC50 [4] [µM]
0 | 0 | 0 | 15.5 | 86.5 | 0 | 14.6 | 0 | 0 | – | O-SULFATED N'SULFO-N'-LYSO-GM1 [Liga 179] | 15 | – | –
– | – | – | – | – | – | – | – | – | 12 | N-4-CHLOROBENZENESULFONYL-LYSOGM1 [Liga 123] | – | about 48% | 6
– | – | – | – | – | – | – | – | – | 25 | N-BENZENESULFONYL-LYSO GM1 [Liga 125] | – | – | –
